From ChEMBL document CHEMBL3217647, “Prospective use of molecular field points in ligand-based virtual screening: efficient identification of new reversible Cdc25 inhibitors” (Medchemcomm, 2013) come the findings set out here.

Experiment [1] has as its target T1, M-phase inducer phosphatase 2 (Homo sapiens, UniProt P30305).
T1 sequence (P30305 whole entry): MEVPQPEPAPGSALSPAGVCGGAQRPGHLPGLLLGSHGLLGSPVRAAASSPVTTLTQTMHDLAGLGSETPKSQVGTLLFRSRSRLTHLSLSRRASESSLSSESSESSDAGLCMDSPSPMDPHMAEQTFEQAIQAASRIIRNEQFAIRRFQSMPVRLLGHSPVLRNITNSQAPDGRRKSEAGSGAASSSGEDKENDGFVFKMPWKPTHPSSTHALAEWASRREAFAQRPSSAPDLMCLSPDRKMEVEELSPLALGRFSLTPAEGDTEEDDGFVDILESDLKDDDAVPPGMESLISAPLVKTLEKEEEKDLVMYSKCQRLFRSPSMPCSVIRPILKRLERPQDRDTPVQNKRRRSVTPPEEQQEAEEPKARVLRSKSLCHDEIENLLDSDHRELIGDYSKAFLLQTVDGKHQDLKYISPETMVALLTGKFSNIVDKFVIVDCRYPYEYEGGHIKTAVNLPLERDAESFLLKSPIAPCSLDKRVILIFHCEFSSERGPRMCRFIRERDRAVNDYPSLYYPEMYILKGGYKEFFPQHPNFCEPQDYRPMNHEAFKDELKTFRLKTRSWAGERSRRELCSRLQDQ
Kind of experiment: Inhibition of Cdc25B (unknown origin) phosphatase activity assessed as fluorescence by BMG plate reader in the presence of 0.005% Tween-20.

Experiment [2] has as its target T2, M-phase inducer phosphatase 1 (Homo sapiens, UniProt P30304).
T2 sequence (P30304 whole entry): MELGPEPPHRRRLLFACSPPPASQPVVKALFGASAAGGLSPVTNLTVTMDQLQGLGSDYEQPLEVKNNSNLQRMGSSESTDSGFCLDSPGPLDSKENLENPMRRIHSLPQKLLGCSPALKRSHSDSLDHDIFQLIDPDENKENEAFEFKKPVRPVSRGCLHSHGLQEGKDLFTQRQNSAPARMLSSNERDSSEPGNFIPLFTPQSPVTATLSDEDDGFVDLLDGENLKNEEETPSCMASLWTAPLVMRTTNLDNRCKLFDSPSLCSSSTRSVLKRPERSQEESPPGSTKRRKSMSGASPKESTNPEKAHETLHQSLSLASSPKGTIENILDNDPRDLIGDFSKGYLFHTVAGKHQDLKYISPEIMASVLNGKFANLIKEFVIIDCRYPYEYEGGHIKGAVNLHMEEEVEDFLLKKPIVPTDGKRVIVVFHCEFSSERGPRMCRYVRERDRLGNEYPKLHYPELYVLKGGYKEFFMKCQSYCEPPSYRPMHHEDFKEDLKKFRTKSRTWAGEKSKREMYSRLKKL
Put plainly: Inhibition of Cdc25A (unknown origin) phosphatase activity assessed as fluorescence by BMG plate reader in the presence of 0.005% Tween-20.

Experiment [3] addresses T3, M-phase inducer phosphatase 3 (Homo sapiens, UniProt P30307).
T3 sequence (P30307 whole entry): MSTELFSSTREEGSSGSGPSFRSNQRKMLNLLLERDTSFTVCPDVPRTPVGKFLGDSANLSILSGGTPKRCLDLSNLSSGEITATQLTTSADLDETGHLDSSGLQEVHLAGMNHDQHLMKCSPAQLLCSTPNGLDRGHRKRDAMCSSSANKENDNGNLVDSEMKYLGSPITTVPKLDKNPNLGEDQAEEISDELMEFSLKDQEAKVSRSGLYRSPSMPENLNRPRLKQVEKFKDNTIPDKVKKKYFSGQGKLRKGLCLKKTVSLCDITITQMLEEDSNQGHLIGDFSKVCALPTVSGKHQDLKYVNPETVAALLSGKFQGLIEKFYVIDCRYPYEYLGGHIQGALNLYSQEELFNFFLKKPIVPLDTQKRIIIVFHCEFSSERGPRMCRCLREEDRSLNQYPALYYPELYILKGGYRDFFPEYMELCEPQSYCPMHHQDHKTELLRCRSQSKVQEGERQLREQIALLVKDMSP
Kind of experiment: Inhibition of Cdc25C (unknown origin) phosphatase activity assessed as fluorescence by BMG plate reader in the presence of 0.005% Tween-20.

Experiment [4] has as its target T4, Dual specificity protein phosphatase 3 (Homo sapiens, UniProt P51452). Kind of experiment: Inhibition of human His-tagged VHR phosphatase activity assessed as fluorescence by BMG plate reader in the presence of 0.005% Tween-20.
For experiment [5], the species on record is Homo sapiens. Kind of experiment: Inhibition of alkaline phosphatase (unknown origin) phosphatase activity assessed as fluorescence at 100 uM by BMG plate reader in the presence of 0.005% Tween-20.
The target of experiment [6] is T2, M-phase inducer phosphatase 1. Put plainly: Inhibition of Cdc25A (unknown origin) phosphatase activity assessed as fluorescence by BMG plate reader in the absence of detergent.
The target in experiment [7] is T4, Dual specificity protein phosphatase 3. Put plainly: Inhibition of human His-tagged VHR phosphatase activity assessed as fluorescence by BMG plate reader in the absence of detergent.
The species named for experiment [8] is Homo sapiens. Put plainly: Inhibition of MKP-5/p38 (unknown origin) phosphatase activity assessed as fluorescence at 100 uM by BMG plate reader in the presence of 0.005% Tween-20.
The target of experiment [9] is T5, Tyrosine-protein phosphatase non-receptor type 1 (Homo sapiens) (UniProt P18031).
T5 sequence (whole entry): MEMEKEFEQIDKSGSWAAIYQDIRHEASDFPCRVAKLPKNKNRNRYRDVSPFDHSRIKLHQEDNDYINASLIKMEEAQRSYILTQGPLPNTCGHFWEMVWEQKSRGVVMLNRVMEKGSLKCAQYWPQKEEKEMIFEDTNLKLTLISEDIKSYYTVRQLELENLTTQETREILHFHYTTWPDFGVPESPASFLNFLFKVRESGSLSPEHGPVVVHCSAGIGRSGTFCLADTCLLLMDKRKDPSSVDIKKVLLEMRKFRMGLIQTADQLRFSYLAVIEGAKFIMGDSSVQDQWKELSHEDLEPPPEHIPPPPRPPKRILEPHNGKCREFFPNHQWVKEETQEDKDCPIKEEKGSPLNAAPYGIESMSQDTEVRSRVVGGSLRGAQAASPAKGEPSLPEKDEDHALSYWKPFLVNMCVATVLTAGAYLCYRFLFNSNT
Kind of experiment: Inhibition of PTP1B (unknown origin) phosphatase activity assessed as fluorescence at 100 uM by BMG plate reader in the presence of 0.005% Tween-20.

Experiment [10] addresses T1, M-phase inducer phosphatase 2. Kind of experiment: Inhibition of Cdc25B (unknown origin) phosphatase activity assessed as fluorescence by BMG plate reader in the absence of detergent.
Experiment [11] deals with T3, M-phase inducer phosphatase 3. Kind of experiment: Inhibition of Cdc25C (unknown origin) phosphatase activity assessed as fluorescence by BMG plate reader in the absence of detergent.

T4 sequence (P51452 whole entry): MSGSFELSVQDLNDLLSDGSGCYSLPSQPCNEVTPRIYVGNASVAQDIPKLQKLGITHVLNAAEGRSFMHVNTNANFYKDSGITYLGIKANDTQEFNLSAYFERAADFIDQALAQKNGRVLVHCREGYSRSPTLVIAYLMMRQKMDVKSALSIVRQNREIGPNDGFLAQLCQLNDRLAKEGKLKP

As to `O=C(Nc1nc(-c2ccc(F)cc2)cs1)c1cnccn1`, the IC50 (as a rule, the point on the concentration scale where inhibition reaches its midpoint) in [1] was 16 µM; in [2], 25.7 µM; in experiment [3] it was 40 µM; in [4] it was greater than 100 µM.
Regarding `CCOC(=O)C1=C(C)N=c2s/c(=C\c3ccc(O)cc3)c(=O)n2C1c1ccc2c(c1)OCO2` (stereo not given), the IC50 in [1] is 13 µM.
For `O=C(CCC(=O)Nc1nc(-c2cc3ccccc3oc2=O)cs1)NCc1ccc2c(c1)OCO2`, the IC50 was 0.9 µM in experiment [1], 20.1 µM in [2], 8.2 µM in [3] and 17 µM in experiment [4].
As for `COc1ccc(-c2nc(-c3cc(C)n(CC4CCCO4)c3C)cs2)cc1` (stereo not given), the IC50 in [1] was 23.6 µM; in experiment [6] it was 6.4 µM; in [7], 8.3 µM; in experiment [10] it was 12.1 µM; in [2], 31.1 µM; in experiment [3], greater than 100 µM. The IC50 in experiment [11] is 24.7 µM; in experiment [4] it was 33.3 µM. The inhibition (in the experiment filed under Homo sapiens [5]; in the experiment listed under Homo sapiens [8]; in experiment [9]) was less than 50% in each case.
On to `COc1ccc(-c2nc(-c3ccc4c(c3)CCN4S(C)(=O)=O)cs2)cc1`, for which the IC50 was determined as 26.1 µM in experiment [1]; 6.5 µM in experiment [6]; 8.1 µM in experiment [7]; 17.5 µM in [10]; 42.9 µM in [2]; 42.5 µM in experiment [3]. Further, the figures for the IC50 in [11] and in [4] were 18 µM and 45.4 µM, respectively. Besides, the inhibition (in the experiment filed under Homo sapiens [5]; in the experiment filed under Homo sapiens [8]; in experiment [9]) was less than 50% each time.
Take `O=C(CCC(=O)NC1CCCC1)Nc1nc(-c2cc3ccccc3oc2=O)cs1`: the IC50 is 5.9 µM in experiment [1], 12.3 µM in experiment [2], 9.4 µM in experiment [3] and 24.9 µM in experiment [4].
As for `CCOc1ccc(-c2nn(-c3ccccc3)cc2/C=C2\SC(=O)N(C)C2=O)cc1Br`, the IC50 in experiment [1] is 2 µM.
As for `O=C1C(=O)c2c(C(=O)c3ccccc3)coc2-c2ccccc21`, the IC50 in experiment [1], in [2] and in experiment [3] was 5 µM throughout.
As for `Cc1cccc(-c2nc(-c3ccc4c(c3)CCN4S(C)(=O)=O)cs2)c1`, the IC50 was found to be 34.4 µM in [1]; 5.6 µM in [6]; 8 µM in experiment [7]; 19 µM in experiment [10]; 31.8 µM in experiment [2]; 37.8 µM in [3]. Besides, the IC50 in experiment [11] amounted to 24.3 µM; in [4] it was 40.1 µM. Besides, the inhibition (in the experiment filed under Homo sapiens [5]; in the experiment filed under Homo sapiens [8]; in experiment [9]) was less than 50% each time.
As for `COc1ccc(-c2csc(-c3cccc(NC(=O)C4CC4)c3)n2)cc1`, the IC50 in experiment [1] is greater than 100 µM; in experiment [6], 10.2 µM; in experiment [7] it was 8.9 µM; in [10], 14.9 µM; in experiment [2], greater than 100 µM; in experiment [3], 42.2 µM. The IC50 in experiment [11] was 16.8 µM; in experiment [4] it was greater than 100 µM.
In the case of `COc1ccc(-c2nc(-c3cnc(N)nc3)cs2)cc1`, the IC50 in [1] was 19.7 µM; in experiment [2] it was 25 µM; in experiment [3], greater than 100 µM; in experiment [4], greater than 100 µM.
For the compound `CCOc1ccc(-c2nc(-c3ccc4ccccc4c3)cs2)cc1`, the IC50 was greater than 100 µM in experiment [1]; 13 µM in [6]; 4.4 µM in experiment [7]; 13.6 µM in experiment [10]; 30 µM in experiment [2]; 71.5 µM in [3]. Moreover, the IC50 is 31.5 µM in experiment [11] and 61 µM in experiment [4]. For the same compound, the inhibition (in the experiment filed under Homo sapiens [5]; in the experiment listed under Homo sapiens [8]; in experiment [9]) was less than 50% each time.
As to `O=S(=O)(Cc1ccco1)Cc1nc(-c2ccc(-c3ccccc3)cc2)cs1`, the 50% inhibitory concentration (IC50) in experiment [1] turned out to be 1.7 µM; in experiment [2], 2.7 µM; in experiment [3], 9.7 µM; in experiment [4] it was 26 µM.
With `O=C(Nc1cccc(-c2csc(-c3ccccc3)n2)c1)c1ccco1`, the IC50 in experiment [1] is greater than 100 µM; in experiment [6], 17.8 µM; in [7] it was 26.1 µM; in experiment [10], greater than 100 µM; in experiment [2], greater than 100 µM; in experiment [3] it was greater than 100 µM. Moreover, the IC50 in experiment [11] and in experiment [4] was greater than 100 µM throughout.
Turning to `COc1ccccc1-c1nc(-c2ccc3c(c2)CCN3S(C)(=O)=O)cs1`, the IC50 in experiment [1] was found to be 31.3 µM; in [6], 4 µM; in experiment [7] it was 2.7 µM; in experiment [10], 10.1 µM; in [2] it was 41.7 µM; in experiment [3], 42.6 µM. Further, the IC50 came out at 14.2 µM in experiment [11] and 40.2 µM in experiment [4]. Besides, the inhibition (in the experiment filed under Homo sapiens [5]; in the experiment listed under Homo sapiens [8]; in experiment [9]) was less than 50% each time.
In the case of `N#Cc1ccc(-c2csc(-c3ccc(-c4csnn4)cc3)n2)cc1`, the half-inhibitory concentration (IC50) in experiment [1] was 3.1 µM; in experiment [2] it was 12.2 µM; in [3], 8.8 µM; in experiment [4] it was greater than 100 µM.
For the compound `O=c1[nH]c2cc(S(=O)(=O)Nc3cccc(-c4csc(-c5ccccc5)n4)c3)ccc2o1`, the IC50 in [1] was 3.5 µM; in experiment [2], 2.2 µM; in experiment [3], 44.4 µM; in [4], 34.8 µM.
Turning to `COc1ccc(-c2nc(C(=O)Nc3ccc[nH]c3=O)cs2)cc1`, the figures for the IC50 in [1], in experiment [2] and in [4] were 6.8 µM, 17.5 µM and greater than 100 µM, respectively.
On to `O=C(Nc1cccc(-c2csc(-c3ccccc3)n2)c1)c1cccc(=O)[nH]1`, for which the IC50 in experiment [1] was 4.2 µM; in [2], 6.9 µM; in experiment [3], 8.6 µM; in [4], greater than 100 µM.
On to `O=C(/C=C/c1ccc2c(c1)OCO2)Nc1nc(-c2ccc(F)cc2F)cs1`, for which the IC50 was 2.69 µM in [1], 7.5 µM in experiment [2], 11 µM in [3] and 65.7 µM in [4].
